In PMC5423977, “Safety, pharmacokinetics, and pharmacodynamics of BMS-986142, a novel reversible BTK inhibitor, in healthy participants” (European Journal of Clinical Pharmacology, 2017):
Where “and” joins values, the source holds several entries; their conditions need not be identical. Identical values can stand only once.

What was measured:
[1] = rats, 1-month GLP toxicology study; cited from earlier work
[2] = Safety (adverse events), Study 2 MTX-DDI in healthy male participants
Procedure: This portion of the study was designed to assess the effect of BMS-986142 on the PK of MTX since MTX is used as a background therapy in RA patients and all patients will receive MTX when the phase 2 study of BMS-986142 is conducted. Eligible participants were confined to the clinical facility for the duration of treatment (15 days). Healthy participants were administered a single oral dose of 7.5 mg MTX on day 1. On day 2, participants received leucovorin (a single oral dose of 15 mg) as a preventive measure for MTX toxicity. After a washout period (days 2–5), BMS-986142 was administered on days 6–10 in 350-mg QD doses. A concomitant dose of MTX (7.5 mg) was administered on day 8, followed by leucovorin (15 mg) on day 9 (Online Resource 2). BMS-986142 was administered with 240 mL of water, and a minimum amount of additional water was permitted to allow dosing of all medications. Only healthy male participants (ages ≥18 to ≤50 years) were eligible for the MTX-DDI assessment in study 2. Other key inclusion and exclusion criteria were identical to those in study 1.
Participants were monitored for adverse events (AEs) throughout the study. Clinical laboratory tests, vital sign measurements, 12-lead ECGs, and physical examinations were performed at selected times throughout the dosing interval. Safety data was recorded in the participants’ medical records, and assessments were performed for emergent AEs or serious AEs (SAEs). For all AEs, causal relationship to the study drug was determined by an investigator.

[3] = tested on: CD69 expression on B cells; assay: Ex vivo anti-IgD-dextran induced CD69 expression on B cells in whole blood; assay type: cell-based, human
Procedure: To assess the functional effect of BMS-986142 on a relevant pathway in the targeted cells, whole blood was stimulated ex vivo with anti-IgD-dextran to activate signal transduction through the B cell antigen receptor. B cells, identified by CD20, were assessed for expression of CD69. Blood was incubated without addition of anti-IgD-dextran to serve as a negative control. Samples were incubated for 24 h at 37 °C, and then fixed and stained for CD20 and CD69. CD69 expression was quantified by standardized flow cytometry. Fluorescence intensity was measured and reported in units of mean equivalents of soluble fluorescein (MESF). Background CD69 level was measured from samples without the addition of anti-IgD-dextran and was subtracted from the stimulated value. The anti-IgD specific CD69 induction was used for analysis. The result for each sample was expressed as a percentage inhibition relative to the pre-dose sample.
CD69 inhibition by BMS-986142 was tabulated by treatment and time, and corresponding changes from baseline were calculated and summarized. The inhibition of B cell receptor-mediated CD69 expression by BMS-986142 was descriptively summarized by treatment and study days. An exposure-response analysis was applied to characterize the relationship between BMS-986142 concentration and CD69 inhibition using a Bayesian Emax model. […]

CD69 expression = tested on: CD69 expression; parameters: method as in PMID 27583770; conditions: in vitro; read-out: IC50 of CD69 inhibition derived from in vitro evaluation; cited from earlier work
[4] = BMS-986142 350 mg QD (Days 6 and 7), n = 12
[5] = BMS-986142 350 mg QD (Days 8 to 10) + MTX 7.5 mg (Day 8) + leucovorin 15 mg (Day 9), n = 12

Cc1c(-c2c(F)cc(C(N)=O)c3[nH]c4c(c23)CC[C@H](C(C)(C)O)C4)cccc1-n1c(=O)c2cccc(F)c2n(C)c1=O [BMS-986142, 6-fluoro-5-(R)-(3-(S)-(8-fluoro-1-methyl-2,4-dioxo-1,2-dihydroquinazolin-3(4H)-yl)-2-methylphenyl)-2-(S)-(2-hydroxypropan-2-yl)-2,3,4,9-tetrahydro-1H-carbazole-8-carboxamide]
2 (16.7) n (%): Total participants with an event [2, 4] | AE SOC: Gastrointestinal Disorders [2, 5] | AE SOC: Nervous system disorders [2, 5] | AE: Dizziness [2, 5] | AE: Nausea [2, 5] | AE: Dizziness ([2]; Study 2, n = 12) | AE: Nausea ([2]; Study 2, n = 12)
90 nM: IC50 (CD69 expression)
145 nM and 0.083 µg/mL: IC50 ([3]; Homo sapiens, B-cell, plasma concentration, Bayesian Emax model, SAD and MAD data, read-out: IC50, concentration to inhibit 50% of CD69 expression)
22,920 ng h/mL: Steady-state exposure (AUC) at NOAEL [1]
9 AEs: Number of AEs reported ([2]; Study 2, concomitant MTX and BMS-986142 (days 8–10))
4 (33.3) n (%): Total participants with an event [2, 5] | Subjects with AEs ([2]; Study 2, n = 12)
1 (8.3) n (%): AE SOC: Nervous system disorders [2, 4] | AE SOC: Psychiatric disorders [2, 4] | AE: Headache [2, 4] | AE: Sleep Disorder [2, 4] | AE SOC: General disorders and administration site conditions [2, 5] | AE SOC: Infections and infestations [2, 5] | AE SOC: Injury, poisoning and procedural complications [2, 5] | AE SOC: Psychiatric disorders [2, 5] | AE: Anxiety [2, 5] | AE: Arthropod Bite [2, 5] | AE: Fatigue [2, 5] | AE: Headache [2, 5] | AE: Viral Infection [2, 5] | AE: Headache/tension headache ([2]; Study 2, n = 12)
2 AEs: Number of AEs reported ([2]; Study 2, BMS-986142 on days 6 and 7)
~100%: Mean maximal inhibition of CD69 expression ([3]; dose levels greater than 100 mg)
0 n (%): AE SOC: Gastrointestinal Disorders [2, 4] | AE SOC: General disorders and administration site conditions [2, 4] | AE SOC: Infections and infestations [2, 4] | AE SOC: Injury, poisoning and procedural complications [2, 4] | AE: Anxiety [2, 4] | AE: Arthropod Bite [2, 4] | AE: Asthenia [2, 4] | AE: Dizziness [2, 4] | AE: Fatigue [2, 4] | AE: Nausea [2, 4] | AE: Tremor [2, 4] | AE: Viral Infection [2, 4] | AE: Asthenia [2, 5] | AE: Sleep Disorder [2, 5] | AE: Tremor [2, 5] | AE: Cough ([2]; Study 2, n = 12) | AE: Diarrhea ([2]; Study 2, n = 12) | AE: Thermal burns ([2]; Study 2, n = 12) | AE: Upper respiratory tract infection ([2]; Study 2, n = 12)
